How the values were obtained:
soybean [1] = assay: Test C postemergence; format: in vivo, Glycine max; details: 10 days, 0 to 100 scale (0 no effect, 100 complete control)
Procedure, shortened: (§1)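 Visual injury ratings on a 0–100 scale (100 = complete control) were made against untreated controls 10 days after treatment in the greenhouse. Compounds, formulated with surfactant in non-phytotoxic solvent, were sprayed on soil preemergence or onto one- to two-leaf plants 2–10 cm tall postemergence.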

ragweed [2] = assay: Test C preemergence; format: in vivo, Ambrosia artemisiifolia
Procedure, shortened: as §1

corn [3] = assay: Test C preemergence; format: in vivo, Zea mays
Procedure, shortened: as §1

green foxtail [4] = assay: Test C preemergence; format: in vivo, Setaria viridis
Procedure, shortened: as §1

pigweed, palmer [5] = assay: Test C postemergence; format: in vivo, Amaranthus palmeri; details: 10 days, 0 to 100 scale (0 no effect, 100 complete control)
Procedure, shortened: as §1

wheat [6] = assay: Test C postemergence; format: in vivo, Triticum aestivum; details: 10 days, 0 to 100 scale (0 no effect, 100 complete control)
Procedure, shortened: as §1

blackgrass [7] = assay: Test C postemergence; format: in vivo, Alopecurus myosuroides; details: 10 days, 0 to 100 scale (0 no effect, 100 complete control)
Procedure, shortened: as §1

rice = assay: Test D flooded paddy test; format: in vivo, Oryza sativa; details: 250 g ai/ha, applied to paddy water, visual rating after 13 to 14 days, scale 0 to 100 (0 no effect, 100 complete control)
Procedure, shortened: (§2)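 Plants grown to the 2-leaf stage; pots flooded to 3 cm above soil at treatment and held at that depth throughout. Test compounds applied directly to the paddy water. After 13 to 14 days in a greenhouse, response was rated visually versus controls on a 0 (no effect) to 100 (complete control) scale.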

pigweed, palmer [8] = assay: Test C preemergence; format: in vivo, Amaranthus palmeri
Procedure, shortened: as §1

kochia [9] = assay: Test C preemergence; format: in vivo, Bassia scoparia
Procedure, shortened: as §1

ryegrass, Italian [10] = assay: Test C preemergence; format: in vivo, Lolium multiflorum
Procedure, shortened: as §1

ducksalad = assay: Test D flooded paddy test; format: in vivo, Heteranthera limosa; details: 250 g ai/ha, applied to paddy water, visual rating after 13 to 14 days, scale 0 to 100 (0 no effect, 100 complete control)
Procedure, shortened: as §2

blackgrass [11] = assay: Test C preemergence; format: in vivo, Alopecurus myosuroides
Procedure, shortened: as §1

barnyardgrass [12] = assay: Test C postemergence; format: in vivo, Echinochloa crusgalli; details: 10 days, 0 to 100 scale (0 no effect, 100 complete control)
Procedure, shortened: as §1

oat, wild [13] = assay: Test C preemergence; format: in vivo, Avena fatua
Procedure, shortened: as §1

barnyardgrass [14] = assay: Test C preemergence; format: in vivo, Echinochloa crusgalli
Procedure, shortened: as §1

ragweed [15] = assay: Test C postemergence; format: in vivo, Ambrosia artemisiifolia; details: 10 days, 0 to 100 scale (0 no effect, 100 complete control)
Procedure, shortened: as §1

galium = assay: Test C postemergence; format: in vivo, Galium aparine; details: 10 days, 0 to 100 scale (0 no effect, 100 complete control)
Procedure, shortened: as §1

wheat [16] = assay: Test C preemergence; format: in vivo, Triticum aestivum
Procedure, shortened: as §1

horseweed = assay: Test C postemergence; format: in vivo, Erigeron canadensis; details: 10 days, 0 to 100 scale (0 no effect, 100 complete control)
Procedure, shortened: as §1

green foxtail [17] = assay: Test C postemergence; format: in vivo, Setaria viridis; details: 10 days, 0 to 100 scale (0 no effect, 100 complete control)
Procedure, shortened: as §1

sedge, umbrella = assay: Test D flooded paddy test; format: in vivo, Cyperus difformis; details: 250 g ai/ha, applied to paddy water, visual rating after 13 to 14 days, scale 0 to 100 (0 no effect, 100 complete control)
Procedure, shortened: as §2

corn [18] = assay: Test C postemergence; format: in vivo, Zea mays; details: 10 days, 0 to 100 scale (0 no effect, 100 complete control)
Procedure, shortened: as §1

kochia [19] = assay: Test C postemergence; format: in vivo, Bassia scoparia; details: 10 days, 0 to 100 scale (0 no effect, 100 complete control)
Procedure, shortened: as §1

soybean [20] = assay: Test C preemergence; format: in vivo, Glycine max
Procedure, shortened: as §1

ryegrass, Italian [21] = assay: Test C postemergence; format: in vivo, Lolium multiflorum; details: 10 days, 0 to 100 scale (0 no effect, 100 complete control)
Procedure, shortened: as §1

oat, wild [22] = assay: Test C postemergence; format: in vivo, Avena fatua; details: 10 days, 0 to 100 scale (0 no effect, 100 complete control)
Procedure, shortened: as §1

barnyardgrass [23] = assay: Test D flooded paddy test; format: in vivo, Echinochloa crus-galli; details: 250 g ai/ha, applied to paddy water, visual rating after 13 to 14 days, scale 0 to 100 (0 no effect, 100 complete control)
Procedure, shortened: as §2

[24] = 500 g ai/ha, preemergence, 0 to 100 scale (0 no effect, 100 complete control)
[25] = Preemergence, 125 g ai/ha, 0 to 100 scale, 0 no effect, 100 complete control

CCOCC1CN(C(=O)c2cc(-n3cnc(CC)n3)ccc2OC)c2cccc(Cl)c2O1 (stereo not shown) [Compound 378]
Plant response rating, Soybean (soybean [1]; 500 g ai/ha, postemergence): 100 | Plant response rating, Soybean (soybean [1]; Postemergence, 125 g ai/ha): 100 | Ragweed plant response rating (ragweed [2]; [24]): 80 | Plant response rating, Ragweed (ragweed [2]; [25]): 60 | Corn plant response rating (corn [3]; [24]): 50 | Plant response rating, Corn (corn [3]; [25]): 0 | Foxtail, Green plant response rating (green foxtail [4]; [24]): 100 | Plant response rating, Foxtail, Green (green foxtail [4]; [25]): 90 | Plant response rating, Pigweed, Palmer (pigweed, palmer [5]; 500 g ai/ha, postemergence): 100 | Plant response rating, Pigweed, Palmer (pigweed, palmer [5]; Postemergence, 125 g ai/ha): 90 | Plant response rating, Wheat (wheat [6]; 500 g ai/ha, postemergence): 40 | Plant response rating, Wheat (wheat [6]; Postemergence, 125 g ai/ha): 30 | Plant response rating, Blackgrass (blackgrass [7]; 500 g ai/ha, postemergence): 50 | Plant response rating, Blackgrass (blackgrass [7]; Postemergence, 125 g ai/ha): 30 | Plant response rating, Rice (Flood) (rice): 0 | Pigweed, Palmer plant response rating (pigweed, palmer [8]; [24]): 100 | Plant response rating, Pigweed, Palmer (pigweed, palmer [8]; [25]): 100 | Kochia plant response rating (kochia [9]; [24]): 100 | Plant response rating, Kochia (kochia [9]; [25]): 100 | Ryegrass, Italian plant response rating (ryegrass, Italian [10]; [24]): 90 | Plant response rating, Ryegrass, Italian (ryegrass, Italian [10]; [25]): 60 | Plant response rating, Ducksalad (Flood) (ducksalad): 0 | Blackgrass plant response rating (blackgrass [11]; [24]): 50 | Plant response rating, Blackgrass (blackgrass [11]; [25]): 10 | Plant response rating, Barnyardgrass (barnyardgrass [12]; 500 g ai/ha, postemergence): 80 | Plant response rating, Barnyardgrass (barnyardgrass [12]; Postemergence, 125 g ai/ha): 40 | Oat, Wild plant response rating (oat, wild [13]; [24]): 60 | Plant response rating, Oat, Wild (oat, wild [13]; [25]): 20 | Barnyardgrass plant response rating (barnyardgrass [14]; [24]): 100 | Plant response rating, Barnyardgrass (barnyardgrass [14]; [25]): 80 | Plant response rating, Ragweed (ragweed [15]; 500 g ai/ha, postemergence): 90 | Plant response rating, Ragweed (ragweed [15]; Postemergence, 125 g ai/ha): 70 | Plant response rating, Galium (galium; 500 g ai/ha, postemergence): 100 | Plant response rating, Galium (galium; Postemergence, 125 g ai/ha): 90 | Wheat plant response rating (wheat [16]; [24]): 30 | Plant response rating, Wheat (wheat [16]; [25]): 10 | Plant response rating, Horseweed (horseweed; 500 g ai/ha, postemergence): 70 | Plant response rating, Horseweed (horseweed; Postemergence, 125 g ai/ha): 10 | Plant response rating, Foxtail, Green (green foxtail [17]; 500 g ai/ha, postemergence): 90 | Plant response rating, Foxtail, Green (green foxtail [17]; Postemergence, 125 g ai/ha): 70 | Plant response rating, Sedge, Umbrella (Flood) (sedge, umbrella): 0 | Plant response rating, Corn (corn [18]; 500 g ai/ha, postemergence): 80 | Plant response rating, Corn (corn [18]; Postemergence, 125 g ai/ha): 20 | Plant response rating, Kochia (kochia [19]; 500 g ai/ha, postemergence): 100 | Plant response rating, Kochia (kochia [19]; Postemergence, 125 g ai/ha): 90 | Soybean plant response rating (soybean [20]; [24]): 90 | Plant response rating, Soybean (soybean [20]; [25]): 60 | Plant response rating, Ryegrass, Italian (ryegrass, Italian [21]; 500 g ai/ha, postemergence): 60 | Plant response rating, Ryegrass, Italian (ryegrass, Italian [21]; Postemergence, 125 g ai/ha): 20 | Plant response rating, Oat, Wild (oat, wild [22]; 500 g ai/ha, postemergence): 30 | Plant response rating, Oat, Wild (oat, wild [22]; Postemergence, 125 g ai/ha): 0 | Plant response rating, Barnyardgrass (Flood) (barnyardgrass [23]): 0
